These results are taken from ChEMBL document CHEMBL5291721, “A preclinical secondary pharmacology resource illuminates target-adverse drug reaction associations of marketed drugs” (Nat Commun, 2023).

Test [1] has as its target T1, Alpha-2A adrenergic receptor (Homo sapiens, UniProt P08913).
T1 sequence (P08913 whole entry): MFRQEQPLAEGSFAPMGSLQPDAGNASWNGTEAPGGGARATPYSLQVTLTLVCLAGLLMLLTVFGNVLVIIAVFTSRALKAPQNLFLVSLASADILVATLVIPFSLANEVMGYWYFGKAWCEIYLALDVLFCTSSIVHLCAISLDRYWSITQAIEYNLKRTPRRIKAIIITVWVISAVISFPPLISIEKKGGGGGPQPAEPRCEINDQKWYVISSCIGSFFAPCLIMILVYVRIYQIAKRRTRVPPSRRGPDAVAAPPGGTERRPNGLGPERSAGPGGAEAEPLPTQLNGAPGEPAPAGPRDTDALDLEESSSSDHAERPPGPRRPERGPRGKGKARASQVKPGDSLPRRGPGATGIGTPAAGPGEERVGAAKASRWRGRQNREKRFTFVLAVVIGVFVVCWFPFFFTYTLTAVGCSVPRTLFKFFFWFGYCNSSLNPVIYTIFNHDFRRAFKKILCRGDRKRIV
The class given is functional, cell-based.

Test [2] deals with Voltage-dependent L-type calcium channel subunit alpha-1C (Rattus norvegicus, UniProt P22002). The class given is functional.
For test [3], the target named is T2, Cholecystokinin receptor type A (Homo sapiens, UniProt P32238).
T2 sequence (P32238 whole entry): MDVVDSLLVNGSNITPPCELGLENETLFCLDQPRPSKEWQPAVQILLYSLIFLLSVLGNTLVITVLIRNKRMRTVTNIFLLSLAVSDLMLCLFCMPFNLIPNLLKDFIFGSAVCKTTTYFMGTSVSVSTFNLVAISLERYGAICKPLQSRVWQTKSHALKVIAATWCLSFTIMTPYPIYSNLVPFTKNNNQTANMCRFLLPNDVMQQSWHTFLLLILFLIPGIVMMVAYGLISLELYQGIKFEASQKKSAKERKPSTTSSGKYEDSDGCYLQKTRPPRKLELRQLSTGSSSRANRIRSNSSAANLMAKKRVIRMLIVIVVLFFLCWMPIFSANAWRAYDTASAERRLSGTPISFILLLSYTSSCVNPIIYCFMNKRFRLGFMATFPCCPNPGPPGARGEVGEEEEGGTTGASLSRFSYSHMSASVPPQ

Test [4] has as its target Muscarinic acetylcholine receptor M3 (Homo sapiens, UniProt P20309).
Test [5] addresses Neuronal acetylcholine receptor subunit alpha-4 (Homo sapiens, UniProt P43681).
For test [6], the target named is D(1A) dopamine receptor (Homo sapiens, UniProt P21728). The class given is functional, cell-based.
Test [7] has as its target Gamma-aminobutyric acid receptor subunit alpha-1 (Rattus norvegicus, UniProt P62813). The format is functional.
Test [8] addresses Histamine H2 receptor (Homo sapiens, UniProt P25021). The format is functional, cell-based.
Test [9] has as its target T3, Progesterone receptor (Homo sapiens, UniProt P06401).
T3 sequence (P06401 whole entry): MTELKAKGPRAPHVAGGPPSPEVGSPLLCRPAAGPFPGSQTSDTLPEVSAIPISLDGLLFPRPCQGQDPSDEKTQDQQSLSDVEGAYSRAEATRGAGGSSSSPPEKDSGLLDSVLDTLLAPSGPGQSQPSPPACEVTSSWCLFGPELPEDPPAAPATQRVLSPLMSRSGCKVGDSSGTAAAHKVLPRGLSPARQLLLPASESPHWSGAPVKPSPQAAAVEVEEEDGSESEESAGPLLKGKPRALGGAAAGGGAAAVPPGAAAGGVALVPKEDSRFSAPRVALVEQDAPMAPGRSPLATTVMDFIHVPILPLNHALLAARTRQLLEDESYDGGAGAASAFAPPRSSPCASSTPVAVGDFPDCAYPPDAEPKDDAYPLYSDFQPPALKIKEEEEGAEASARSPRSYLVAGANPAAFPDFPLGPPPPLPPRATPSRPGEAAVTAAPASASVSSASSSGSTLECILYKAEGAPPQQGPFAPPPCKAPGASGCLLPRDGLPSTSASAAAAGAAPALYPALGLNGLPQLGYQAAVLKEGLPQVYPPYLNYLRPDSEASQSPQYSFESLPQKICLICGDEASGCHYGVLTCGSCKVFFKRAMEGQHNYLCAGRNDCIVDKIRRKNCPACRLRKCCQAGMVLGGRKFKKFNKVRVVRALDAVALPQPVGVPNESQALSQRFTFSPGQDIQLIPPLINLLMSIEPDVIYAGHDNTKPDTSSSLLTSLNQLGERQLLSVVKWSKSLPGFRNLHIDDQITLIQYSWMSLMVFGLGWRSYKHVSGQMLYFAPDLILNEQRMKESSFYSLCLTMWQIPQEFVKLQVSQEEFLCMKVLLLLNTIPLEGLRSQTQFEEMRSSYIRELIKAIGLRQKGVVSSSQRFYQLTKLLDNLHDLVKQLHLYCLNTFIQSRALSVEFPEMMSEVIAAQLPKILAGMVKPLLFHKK
The format is functional.

Test [10] concerns the target T4, Amine oxidase [flavin-containing] A (Homo sapiens, UniProt P21397).
T4 sequence (P21397 whole entry): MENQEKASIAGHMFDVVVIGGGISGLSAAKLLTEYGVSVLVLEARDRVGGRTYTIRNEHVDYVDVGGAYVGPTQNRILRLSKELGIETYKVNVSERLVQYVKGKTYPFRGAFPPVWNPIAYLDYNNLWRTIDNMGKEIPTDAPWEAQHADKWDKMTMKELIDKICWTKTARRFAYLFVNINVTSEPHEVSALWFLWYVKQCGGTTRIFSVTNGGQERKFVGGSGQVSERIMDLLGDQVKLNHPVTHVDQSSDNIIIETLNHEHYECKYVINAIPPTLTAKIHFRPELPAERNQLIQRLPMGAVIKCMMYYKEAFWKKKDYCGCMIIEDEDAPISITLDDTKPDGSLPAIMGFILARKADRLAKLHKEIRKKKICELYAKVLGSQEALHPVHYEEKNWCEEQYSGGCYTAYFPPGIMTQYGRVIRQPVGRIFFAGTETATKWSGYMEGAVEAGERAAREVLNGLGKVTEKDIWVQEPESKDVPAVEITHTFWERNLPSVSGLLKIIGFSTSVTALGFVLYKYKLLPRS
The class given is functional.

Bounds are passed on as bounds.
Further: assay procedure not described here.

Chain of Gamma-aminobutyric acid receptor subunit alpha-1 (P62813 whole entry): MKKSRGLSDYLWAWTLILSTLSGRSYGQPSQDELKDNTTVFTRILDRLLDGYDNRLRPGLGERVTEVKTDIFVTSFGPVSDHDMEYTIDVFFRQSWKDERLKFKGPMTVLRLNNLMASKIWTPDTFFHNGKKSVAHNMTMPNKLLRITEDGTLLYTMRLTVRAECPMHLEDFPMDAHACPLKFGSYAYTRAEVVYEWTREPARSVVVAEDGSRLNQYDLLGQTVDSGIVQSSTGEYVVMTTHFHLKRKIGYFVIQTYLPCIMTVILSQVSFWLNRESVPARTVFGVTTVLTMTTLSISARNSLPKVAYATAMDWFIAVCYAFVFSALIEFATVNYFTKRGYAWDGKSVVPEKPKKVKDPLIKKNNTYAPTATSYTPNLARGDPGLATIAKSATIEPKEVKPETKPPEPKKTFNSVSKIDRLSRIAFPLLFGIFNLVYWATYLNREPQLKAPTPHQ
Chain of Histamine H2 receptor (P25021 whole entry): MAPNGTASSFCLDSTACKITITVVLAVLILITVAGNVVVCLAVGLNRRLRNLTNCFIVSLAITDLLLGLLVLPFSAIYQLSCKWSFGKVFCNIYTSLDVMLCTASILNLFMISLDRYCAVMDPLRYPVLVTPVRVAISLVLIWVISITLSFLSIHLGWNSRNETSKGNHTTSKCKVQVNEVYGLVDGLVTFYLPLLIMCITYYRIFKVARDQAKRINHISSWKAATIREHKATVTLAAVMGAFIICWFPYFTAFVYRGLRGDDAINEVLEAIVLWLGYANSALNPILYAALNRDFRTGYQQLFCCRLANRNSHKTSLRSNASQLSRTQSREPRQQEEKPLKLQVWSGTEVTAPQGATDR
Chain of Voltage-dependent L-type calcium channel subunit alpha-1C (P22002 whole entry): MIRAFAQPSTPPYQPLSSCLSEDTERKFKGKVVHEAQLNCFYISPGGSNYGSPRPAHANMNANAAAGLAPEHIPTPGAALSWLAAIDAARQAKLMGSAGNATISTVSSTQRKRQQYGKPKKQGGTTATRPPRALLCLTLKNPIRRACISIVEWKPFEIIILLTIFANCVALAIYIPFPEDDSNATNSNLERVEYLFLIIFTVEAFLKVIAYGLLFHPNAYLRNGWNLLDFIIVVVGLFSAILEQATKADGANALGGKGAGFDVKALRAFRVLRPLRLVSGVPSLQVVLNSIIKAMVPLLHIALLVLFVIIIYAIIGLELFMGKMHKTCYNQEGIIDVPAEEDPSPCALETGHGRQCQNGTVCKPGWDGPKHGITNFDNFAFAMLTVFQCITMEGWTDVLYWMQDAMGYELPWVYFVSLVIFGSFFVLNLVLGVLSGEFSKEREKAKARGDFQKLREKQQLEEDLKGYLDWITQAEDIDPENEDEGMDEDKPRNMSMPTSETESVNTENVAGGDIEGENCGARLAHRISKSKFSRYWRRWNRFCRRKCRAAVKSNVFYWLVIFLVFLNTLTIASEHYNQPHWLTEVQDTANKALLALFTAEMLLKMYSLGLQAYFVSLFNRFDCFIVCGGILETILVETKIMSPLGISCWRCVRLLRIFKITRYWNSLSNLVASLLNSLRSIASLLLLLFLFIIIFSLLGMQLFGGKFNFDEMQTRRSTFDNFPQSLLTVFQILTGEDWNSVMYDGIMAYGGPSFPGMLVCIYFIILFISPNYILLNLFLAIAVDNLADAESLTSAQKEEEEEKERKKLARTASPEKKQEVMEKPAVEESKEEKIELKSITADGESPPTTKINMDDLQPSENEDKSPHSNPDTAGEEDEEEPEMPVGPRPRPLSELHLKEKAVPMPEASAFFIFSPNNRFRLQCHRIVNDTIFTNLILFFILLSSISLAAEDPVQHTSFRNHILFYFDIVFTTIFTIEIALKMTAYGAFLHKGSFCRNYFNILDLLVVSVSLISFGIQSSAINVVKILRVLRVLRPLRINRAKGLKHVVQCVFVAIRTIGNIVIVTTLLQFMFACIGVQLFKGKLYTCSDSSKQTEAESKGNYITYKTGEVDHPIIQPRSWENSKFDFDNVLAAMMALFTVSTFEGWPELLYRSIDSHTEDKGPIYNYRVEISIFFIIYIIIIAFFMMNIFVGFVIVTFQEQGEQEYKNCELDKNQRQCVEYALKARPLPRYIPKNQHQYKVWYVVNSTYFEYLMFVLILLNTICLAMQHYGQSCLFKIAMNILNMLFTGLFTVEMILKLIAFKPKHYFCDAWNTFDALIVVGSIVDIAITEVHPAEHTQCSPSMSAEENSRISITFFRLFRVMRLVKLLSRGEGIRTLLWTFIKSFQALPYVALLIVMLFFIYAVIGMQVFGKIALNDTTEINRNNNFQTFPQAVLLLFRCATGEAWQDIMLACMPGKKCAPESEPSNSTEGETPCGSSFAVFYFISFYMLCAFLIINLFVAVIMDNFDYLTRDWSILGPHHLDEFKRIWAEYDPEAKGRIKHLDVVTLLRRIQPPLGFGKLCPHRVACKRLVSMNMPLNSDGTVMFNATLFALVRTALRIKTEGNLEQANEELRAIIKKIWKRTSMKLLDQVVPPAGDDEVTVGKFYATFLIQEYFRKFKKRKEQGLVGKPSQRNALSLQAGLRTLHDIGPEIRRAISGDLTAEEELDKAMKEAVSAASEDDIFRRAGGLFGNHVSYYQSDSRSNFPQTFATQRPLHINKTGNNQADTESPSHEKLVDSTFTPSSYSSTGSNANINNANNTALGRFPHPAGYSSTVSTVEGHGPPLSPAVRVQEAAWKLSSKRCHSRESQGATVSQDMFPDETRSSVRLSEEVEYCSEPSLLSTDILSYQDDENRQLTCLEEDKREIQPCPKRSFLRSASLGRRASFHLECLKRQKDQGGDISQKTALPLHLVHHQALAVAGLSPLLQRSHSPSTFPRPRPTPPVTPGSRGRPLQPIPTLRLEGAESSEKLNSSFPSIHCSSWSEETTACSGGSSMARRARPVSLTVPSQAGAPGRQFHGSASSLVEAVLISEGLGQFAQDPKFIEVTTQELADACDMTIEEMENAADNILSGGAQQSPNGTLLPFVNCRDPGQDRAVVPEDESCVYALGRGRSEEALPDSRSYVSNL
Chain of Muscarinic acetylcholine receptor M3 (P20309 whole entry): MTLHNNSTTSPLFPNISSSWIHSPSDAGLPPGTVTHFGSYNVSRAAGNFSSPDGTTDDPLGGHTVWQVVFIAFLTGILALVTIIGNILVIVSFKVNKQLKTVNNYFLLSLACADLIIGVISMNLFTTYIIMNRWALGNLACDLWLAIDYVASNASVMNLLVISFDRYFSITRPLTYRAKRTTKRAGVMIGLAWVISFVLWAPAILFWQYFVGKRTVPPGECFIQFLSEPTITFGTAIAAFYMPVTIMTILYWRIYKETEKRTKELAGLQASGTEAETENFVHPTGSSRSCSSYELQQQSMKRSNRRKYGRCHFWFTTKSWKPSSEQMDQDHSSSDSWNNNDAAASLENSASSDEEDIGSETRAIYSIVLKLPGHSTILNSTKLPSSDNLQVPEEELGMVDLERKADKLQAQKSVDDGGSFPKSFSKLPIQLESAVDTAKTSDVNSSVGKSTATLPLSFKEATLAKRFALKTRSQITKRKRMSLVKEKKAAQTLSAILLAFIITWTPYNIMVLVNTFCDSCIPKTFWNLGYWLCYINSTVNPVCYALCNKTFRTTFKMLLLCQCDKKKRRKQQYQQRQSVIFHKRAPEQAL
Chain of Neuronal acetylcholine receptor subunit alpha-4 (P43681 whole entry): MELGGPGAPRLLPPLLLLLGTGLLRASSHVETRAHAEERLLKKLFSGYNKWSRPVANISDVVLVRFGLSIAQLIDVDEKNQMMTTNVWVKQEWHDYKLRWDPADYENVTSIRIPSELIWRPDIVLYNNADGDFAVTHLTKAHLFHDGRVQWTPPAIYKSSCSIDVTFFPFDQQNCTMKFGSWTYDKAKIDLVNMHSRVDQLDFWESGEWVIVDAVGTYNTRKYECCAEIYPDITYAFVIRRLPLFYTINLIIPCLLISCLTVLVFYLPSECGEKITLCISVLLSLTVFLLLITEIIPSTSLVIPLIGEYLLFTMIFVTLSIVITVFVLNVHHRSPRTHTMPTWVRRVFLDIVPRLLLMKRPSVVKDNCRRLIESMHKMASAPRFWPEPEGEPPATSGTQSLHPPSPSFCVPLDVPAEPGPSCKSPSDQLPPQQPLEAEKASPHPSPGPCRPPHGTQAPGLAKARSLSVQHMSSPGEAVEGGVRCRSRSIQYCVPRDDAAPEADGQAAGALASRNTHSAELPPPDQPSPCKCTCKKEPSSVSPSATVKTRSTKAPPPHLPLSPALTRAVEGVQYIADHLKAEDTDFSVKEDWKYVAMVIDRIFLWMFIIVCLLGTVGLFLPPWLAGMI
Chain of D(1A) dopamine receptor (P21728 whole entry): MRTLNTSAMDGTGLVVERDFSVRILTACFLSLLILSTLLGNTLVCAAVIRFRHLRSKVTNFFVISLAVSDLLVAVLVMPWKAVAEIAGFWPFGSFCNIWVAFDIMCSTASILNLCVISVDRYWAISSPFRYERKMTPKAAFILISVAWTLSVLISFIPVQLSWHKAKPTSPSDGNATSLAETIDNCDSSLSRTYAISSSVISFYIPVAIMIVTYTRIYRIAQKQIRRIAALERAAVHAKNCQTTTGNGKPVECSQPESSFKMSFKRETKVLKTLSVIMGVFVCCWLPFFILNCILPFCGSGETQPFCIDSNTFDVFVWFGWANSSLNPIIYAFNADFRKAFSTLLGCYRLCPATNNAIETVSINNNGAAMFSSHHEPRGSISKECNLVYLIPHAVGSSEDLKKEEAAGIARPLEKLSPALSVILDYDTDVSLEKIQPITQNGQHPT

For `N#Cc1ccccc1-c1cc(-c2ccccn2)cn(-c2ccccc2)c1=O`, the AC50 in test [1], in test [2], in [3], in test [4], in [5] and in [6] was > 30 µM throughout. Besides, the AC50 in [7], in test [8], in test [9] and in test [10] was > 30 µM each time.

Consider `N=C(N)NCCCCCCC(=O)NC(O)C(=O)NCCCCNCCCN` (stereo unspecified), for which the AC50 in [1], in test [2], in [3], in [4], in test [5] and in test [6] was > 30 µM in each case. For the same molecule, the AC50 in [7], in test [8], in test [9] and in test [10] was > 30 µM each time.

Regarding `C=C[C@@]1(C)CC(=O)[C@]2(O)[C@@]3(C)[C@@H](O)CCC(C)(C)[C@@H]3[C@H](OC(=O)CCN(C)C)[C@H](OC(C)=O)[C@@]2(C)O1`, the AC50 in [1], in test [2], in test [3], in test [4], in test [5] and in [7] was > 30 µM each time. For the same molecule, the AC50 in test [9] and in [10] was > 30 µM each time.

In the case of `O=C(CCCN1CCC(n2c(O)nc3ccccc32)CC1)c1ccc(F)cc1` [BENPERIDOL], the AC50 in test [1] is 19.2 µM; in test [2], > 30 µM; in test [3], > 30 µM; in test [4], 12 µM; in test [5], > 30 µM; in test [6], > 30 µM. Further, the AC50 in [7], in [8] and in [9] was > 30 µM throughout.

On to `CCCC(C)(COC(N)=O)COC(=O)NC(C)C` (stereo unspecified) [CARISOPRODOL], for which the AC50 in test [1] was > 10 µM; in [2], > 10 µM; in test [3], > 30 µM; in test [4], > 10 µM; in [5] it was > 10 µM; in test [6] it was > 10 µM. Moreover, the AC50 in [7], in test [8] and in test [10] was > 10 µM in each case.

As for `N[C@H](Cc1cc(I)c(Oc2cc(I)c(O)c(I)c2)c(I)c1)C(=O)O` [DEXTROTHYROXINE], the AC50 is > 10 µM in test [1]; > 10 µM in [2]; > 30 µM in [3]; > 30 µM in test [4]; > 10 µM in test [5]; > 10 µM in [6]. The AC50 in test [7], in [8] and in test [10] was > 10 µM each time.

On to `Clc1ccc2c(c1)C(c1ccccc1)=NCc1nncn1-2` [ESTAZOLAM], for which the AC50 in test [1] is > 10 µM; in [2] it was > 10 µM; in test [3] it was > 30 µM; in [4], > 30 µM; in test [5] it was > 10 µM; in test [6], > 10 µM. In addition, the AC50 in [7] was 0.0336 µM; in test [8], > 10 µM; in test [10] it was > 10 µM.

In the case of `O=C(O)c1ccccc1Nc1cccc(C(F)(F)F)c1` [FLUFENAMIC ACID], the AC50 was > 30 µM in test [1]; > 10 µM in test [2]; > 30 µM in test [3]; 0.92 µM in [4]; > 10 µM in [5]; > 10 µM in test [6]. Moreover, the AC50 in test [7], in [8] and in test [10] was > 10 µM throughout.

Regarding `CC#CCn1c(N2CCC[C@@H](N)C2)nc2c1c(=O)n(Cc1nc(C)c3ccccc3n1)c(=O)n2C` [LINAGLIPTIN], the AC50 in test [1] is > 10 µM; in [2], > 10 µM; in test [3], > 30 µM; in [4], 6.5 µM; in test [5] it was > 10 µM; in [7], > 10 µM. For the same molecule, the AC50 in [8] and in [10] was > 10 µM in each case.

Consider `O=C1CN=C(c2ccccc2)c2cc(Cl)ccc2N1` [NORDAZEPAM], for which the AC50 is > 10 µM in [1]; > 10 µM in test [2]; > 30 µM in test [3]; > 10 µM in test [4]; > 10 µM in test [5]; > 10 µM in test [6]. Also, the figures for the AC50 in test [7], in test [8] and in [10] were 0.049 µM, > 10 µM and > 10 µM, respectively.

With `CC(CCc1ccccc1)NC(C)C(O)c1ccc(O)cc1` (stereo unspecified) [NYLIDRIN], the AC50 is 19 µM in test [1]; > 10 µM in [2]; > 30 µM in test [3]; > 10 µM in [4]; > 10 µM in test [5]; > 10 µM in [6]. The AC50 in [7], in test [8] and in test [10] was > 10 µM throughout.

With `O=C1Nc2ccc(Cl)cc2C(c2ccccc2)=NC1O` (stereo unspecified) [OXAZEPAM], the AC50 in test [1] was > 10 µM; in [2], > 10 µM; in test [3], > 30 µM; in test [4], > 10 µM; in [5], > 10 µM; in [6], > 10 µM. Further, the AC50 is 0.03 µM in [7], > 10 µM in [8] and > 10 µM in test [10].

Turning to `CC(=O)c1ccc2c(c1)N(CCCN1CCC(CCO)CC1)c1ccccc1S2` [PIPERACETAZINE], the AC50 is > 30 µM in test [2]; > 30 µM in [3]; 9.5 µM in test [4]; > 30 µM in test [5]; > 30 µM in test [6]; > 30 µM in test [7]. The AC50 in test [8], in test [9] and in test [10] was > 30 µM each time.

With `Cc1cc2nc3c(=O)[nH]c(=O)nc-3n(C[C@H](O)[C@H](O)[C@H](O)COP(=O)(O)O)c2cc1C` [RIBOFLAVIN 5'-PHOSPHATE], the AC50 in test [2] is 15 µM; in [3], > 30 µM; in test [4], > 30 µM; in test [5], > 30 µM; in test [6] it was > 30 µM; in [7], > 30 µM. Besides, the AC50 in [8], in test [9] and in test [10] was > 30 µM each time.

The term AC50 denotes the midpoint of the concentration-response curve, whichever way the signal moves.
